Values quoted from earlier work as cited in article PMC7395068, “The evolution of strategies to minimise the risk of human drug-induced liver injury (DILI) in drug discovery and development” (Archives of Toxicology, 2020).
Read-outs that look alike come from different tables or passages of the source. Where a SMILES comes first, the peptide text is derived from it. Bridges are numbered along the chain shown (N, C = ends). [ ]: non-standard residue; d: D form. The star is where a group is joined. dPhe(4-NHCONH2) = NC(=O)Nc1ccc(C[C@@H](N)C(=O)O)cc1; Dihydroorotyl(S) = O=C1C[C@@H](C(=O)*)NC(=O)N1; dPhe(4-Cl) = N[C@H](Cc1ccc(Cl)cc1)C(=O)O; Phe(4-NH2) = Nc1ccc(C[C@H](N)C(=O)O)cc1; d2Nal = N[C@H](Cc1ccc2ccccc2c1)C(=O)O; Lys(iPr) = CC(C)NCCCC[C@H](N)C(=O)O; hArg = N=C(N)NCCCC[C@H](N)C(=O)O; d3Pal = N[C@H](Cc1cccnc1)C(=O)O; Mpa = O=C(O)CCS

Conditions: cited from earlier work
[1] = binary in vivo human DILI call, ref Chen 2016
[2] = human DILI, LTKB DILIrank category, ref Chen 2016

SMILES	DILI +VE (5-8), DILI -VE (-4) [1]	DILI severity category [2]	DILI +VE (5-8), DILI -VE (-4) (in vivo)	DILI severity category (in vivo)
NC(=O)C(c1ccccc1)(c1ccccc1)[C@@H]1CCN(CCc2ccc3c(c2)CCO3)C1 [darifenacin]	-VE	vNo-DILI-Concern		
Nc1ncn([C@H]2C[C@H](O)[C@@H](CO)O2)c(=O)n1 [decitabine]	-VE	Ambiguous DILI-concern		
CC(=O)N[C@H](Cc1ccc2ccccc2c1)C(=O)N[C@H](Cc1ccc(Cl)cc1)C(=O)N[C@H](Cc1cccnc1)C(=O)N[C@@H](CO)C(=O)N[C@@H](Cc1ccc(NC(=O)[C@@H]2CC(=O)NC(=O)N2)cc1)C(=O)N[C@H](Cc1ccc(NC(N)=O)cc1)C(=O)N[C@@H](CC(C)C)C(=O)N[C@@H](CCCCNC(C)C)C(=O)N1CCC[C@H]1C(=O)N[C@H](C)C(N)=O [degarelix] (Ac-[d2Nal][dPhe(4-Cl)][d3Pal]S[Phe(4-NH2)](Dihydroorotyl(S))[dPhe(4-NHCONH2)]L[Lys(iPr)]P[dA]-NH2)	-VE	Ambiguous DILI-concern		
CC(C)Nc1cccnc1N1CCN(C(=O)c2cc3cc(NS(C)(=O)=O)ccc3[nH]2)CC1 [delavirdine]	-VE	Ambiguous DILI-concern		
CN(C)CC(c1ccc(O)cc1)C1(O)CCCCC1 (centres unmarked) [desvenlafaxine]	+VE	vLess-DILI-Concern		
CN(C)CC[C@@H](c1ccc(Cl)cc1)c1ccccn1 [dexchlorpheniramine]	-VE	vNo-DILI-Concern		
Cc1c(OCC(F)(F)F)ccnc1C[S@@+]([O-])c1nc2ccccc2[nH]1 [dexlansoprazole]	+VE	vLess-DILI-Concern		
Cc1cccc([C@H](C)c2cnc[nH]2)c1C [dexmedetomidine]	-VE	Ambiguous DILI-concern		
COC(=O)[C@H](c1ccccc1)[C@H]1CCCCN1 [dexmethylphenidate]			+VE	vLess-DILI-Concern
CC(C)(CO)[C@@H](O)C(=O)NCCCO [dexpanthenol]			-VE	vNo-DILI-Concern
C[C@@H](CN1CC(=O)NC(=O)C1)N1CC(=O)NC(=O)C1 [dexrazoxane]	-VE	Ambiguous DILI-concern		
C[C@H](N)Cc1ccccc1 [dextroamphetamine]			-VE	vNo-DILI-Concern
NS(=O)(=O)c1cc(Cl)c(Cl)c(S(N)(=O)=O)c1 [dichlorphenamide]	-VE	vNo-DILI-Concern		
CCN(CC)CCOC(=O)C1(C2CCCCC2)CCCCC1 [dicyclomine]	-VE	vNo-DILI-Concern		
OCC(S)CS (centres unmarked) [dimercaprol]	-VE	vNo-DILI-Concern		
CCOC(=O)C1(c2ccccc2)CCN(CCC(C#N)(c2ccccc2)c2ccccc2)CC1 [diphenoxylate]	-VE	vNo-DILI-Concern		
CC(C)N(CCC(C(N)=O)(c1ccccc1)c1ccccn1)C(C)C (centres unmarked) [disopyramide]	+VE	vLess-DILI-Concern		
CCN1CC(CCN2CCOCC2)C(c2ccccc2)(c2ccccc2)C1=O (centres unmarked) [doxapram]	-VE	vNo-DILI-Concern		
CN(C)CCC=C1c2ccccc2COc2ccccc21 [doxepin]	+VE	vLess-DILI-Concern		

SMILES	DILI +VE (5-8), DILI -VE (-4) [1]	DILI severity category [2]	DILI +VE (5-8), DILI -VE (-4) (in vivo)	DILI severity category (in vivo)
C=C1/C(=C\C=C2/CCC[C@]3(C)[C@@H]([C@H](C)/C=C/[C@H](C)C(C)C)CC[C@@H]23)C[C@@H](O)C[C@@H]1O [doxercalciferol]	-VE	Ambiguous DILI-concern		
CCCCc1oc2ccc(NS(C)(=O)=O)cc2c1C(=O)c1ccc(OCCCN(CCCC)CCCC)cc1 [dronedarone]	+VE	vMost-DILI-Concern		
CNCC[C@H](Oc1cccc2ccccc12)c1cccs1 [duloxetine]			+VE	vMost-DILI-Concern
C[C@]12C=CC(=O)N[C@@H]1CC[C@@H]1[C@@H]2CC[C@]2(C)[C@@H](C(=O)Nc3cc(C(F)(F)F)ccc3C(F)(F)F)CC[C@@H]12 [dutasteride]	-VE	vNo-DILI-Concern		
O=C(O)CN(CCN(CC(=O)O)CC(=O)O)CC(=O)O [edetic acid]			-VE	Ambiguous DILI-concern
CN1CCC[C@@H]1Cc1c[nH]c2ccc(CCS(=O)(=O)c3ccccc3)cc12 [eletriptan]	-VE	Ambiguous DILI-concern		
CC1=NN(c2ccc(C)c(C)c2)C(=O)/C1=N\Nc1cccc(-c2cccc(C(=O)O)c2)c1O [eltrombopag olamine]	+VE	vMost-DILI-Concern		
Nc1nc(=O)n([C@@H]2CS[C@H](CO)O2)cc1F [emtricitabine]	-VE	Ambiguous DILI-concern		
CN[C@@H](C)[C@H](O)c1ccccc1 [ephedrine]			-VE	vNo-DILI-Concern
CNC[C@H](O)c1ccc(O)c(O)c1 [epinephrine]	-VE	vNo-DILI-Concern		
COc1cccc2c1C(=O)c1c(O)c3c(c(O)c1C2=O)C[C@@](O)(C(=O)CO)C[C@@H]3O[C@H]1C[C@H](N)[C@@H](O)[C@H](C)O1 [epirubicin]	-VE	Ambiguous DILI-concern		
COC(=O)[C@@H]1CC2=CC(=O)CC[C@]2(C)[C@@]23O[C@@H]2C[C@@]2(C)[C@@H](CC[C@@]24CCC(=O)O4)[C@H]13 [eplerenone]	-VE	Ambiguous DILI-concern		
CCCCC[C@H](O)/C=C/[C@@H]1[C@H]2C/C(=C/CCCC(=O)O)O[C@H]2C[C@H]1O [epoprostenol]	-VE	Ambiguous DILI-concern		
CCCCc1ncc(/C=C(\Cc2cccs2)C(=O)O)n1Cc1ccc(C(=O)O)cc1 [eprosartan]	-VE	Ambiguous DILI-concern		
N=C(N)NCCCC[C@@H]1NC(=O)CCSSC[C@@H](C(N)=O)NC(=O)[C@@H]2CCCN2C(=O)[C@H](Cc2c[nH]c3ccccc23)NC(=O)[C@H](CC(=O)O)NC(=O)CNC1=O [eptifibatide] ([Mpa][hArg]GDWPC-NH2; disulfide 1-7)			-VE	vNo-DILI-Concern
C[C@@H](O)[C@H]1C(=O)N2C(C(=O)O)=C(S[C@@H]3CN[C@H](C(=O)Nc4cccc(C(=O)O)c4)C3)[C@H](C)[C@H]12 [ertapenem]	-VE	Ambiguous DILI-concern		
CN(C)CCC[C@@]1(c2ccc(F)cc2)OCc2cc(C#N)ccc21 [escitalopram]			+VE	vLess-DILI-Concern
COc1ccc2[n-]c([S@@+]([O-])Cc3ncc(C)c(OC)c3C)nc2c1.[Na+] [esomeprazole Sodium]			+VE	vLess-DILI-Concern
